The term fraction remaining denotes the share of the starting amount still present when the sample was taken.

Series [1] has as its system C. albicans. Put plainly: Mouse OPC (oropharyngeal candidiasis) model. It is filed as in vivo. Conditions: 100 nM in drinking water for 5 days following inoculation. The procedure:
Mouse OPC model. The efficacy of EntV fragments were tested in the OPC model as described (Graham et al., 2017; Solis and Filler, 2012). Mice were immunosuppressed by injecting 225 mg/kg cortisone acetate subcutaneously 1 d before inoculation, and subsequently on days 1 and 3 of the infection. Group size was 6-8. To prepare the inoculum, 1 ml of C. albicans (SC5314) overnight culture grown at 30° C. in YPD broth was washed twice in PBS before resuspension in sterile Hanks' balanced salt solution (HBSS) at a concentration of 1×10^6 cells/mL. Calcium alginate swabs were soaked in this inoculum for 5 minutes prior to inoculation. Mice were anesthetized using ketamine and xylazine and placed on pre-warmed isothermal pads and the swabs were placed sublingually for 75 min. Mice were given additional doses of ketamine (50 mg/kg), as necessary. After inoculation, mice were given drinking water with EntV fragments or DMSO (0.01%) in the drinking water ad libitum. Mice were euthanized at 5 d after inoculation, unless noted. The tongues were excised and cut in half laterally for tissue histology and assessment of fungal burden.
For tissue histology the tongue sample was placed in 10% zinc-buffered formalin overnight and stored in 80% ethanol, before embedding in paraffin. For each tongue, 5 μm sections were prepared using a Leica microtome and stained using Periodic Acid-Schiff (PAS) stain. Epithelial invasion was measured from 40× images taken of the entire tissue section of each tongue half with the total area of epithelium and infected epithelium were measured using ImageJ (version 1.6). Measurements were totaled and expressed as a percentage of total infected epithelium relative to the entire epithelial area (Graham et al., 2017; Moyes et al., 2016).
For examination of fungal burden, qPCR was used by amplifying a 269-bp fragment of the internal transcribed spacer 2 (ITS2) between the 5.8S and 28S ribosomal RNA genes of C. albicans (Graham et al., 2017; Khot et al., 2009). DNA was extracted from homogenized tongue tissue using the Yeast DNA Extraction Kit (Thermo Scientific) according to the protocol with minor modifications. The ITS2 fragment was amplified by qPCR was performed with a CFX96 Real-Time System with a C1000 Touch thermal cycler (BioRad). C. albicans gDNA was quantified using FastStart Universal SYBR Green master mix with ROX (Roche). To screen for contamination and background fluorescence during the qPCR amplification, no template controls were used.

Series [2] has as its system C. albicans. Put plainly: Killing of C. elegans by C. albicans (survival of infected nematodes). Conditions: for Median survival: C. albicans infected C. elegans exposed to 1 nM peptide, one value per trial; for Protection of C. elegans from C. albicans infection (survival): 1 nM peptide. In kind it is in vivo. The procedure: The α7 helix is sufficient to protect C. elegans and inhibit surface adhesion. Based on this structural characterization, fragments of EntV were examined to identify those structural moieties that retained antifungal activity. Synthetic peptides were generated of each of the four alpha helices (plus two flanking amino acids) from the active C-terminus of EntV—α4, α5, α6 and α7 (FIG. 1A) as well as an α4-α6 construct. The peptides were tested for their ability to protect C. elegans against C. albicans infection as established in previous work (Cruz et al., 2013; Graham et al., 2017).
Killing of C. elegans by C. albicans. The methodology used for the C. elegans infection assays was performed, with a few modifications, as described ((Breger et al., 2007; Cruz et al., 2013; Graham et al., 2017; Peleg et al., 2008)). Briefly, C. elegans glp-4(bn2); sek-1(km-4) (Breger et al., 2007) nematodes were propagated and maintained on E. coli strain OP50(Brenner, 1974) that was seeded onto nematode growth medium (NGM) agar using standard techniques (Hope, 1999). To synchronize the animals, L1 stage worms on non-starved plates were washed off, filtered through a 10 μm filter (pluriSelect, pluriStrainer 10 μm), harvested by centrifugation, transferred to OP50 seeded plates, and grown to the L4 stage. To prepare the infection plates, C. albicans strain […] (Gillum et al., 1984) was grown in YPD broth for 24 h at 37° C. with agitation. 500 μl of the culture was plated onto BHI solid medium containing gentamycin (10 μg/ml) and grown for 24 h at 37° C. The synchronized, L4 C. elegans were washed off the OP50 plates in 2 ml sterile M9 buffer and washed once, centrifuging at 750×g for 30 seconds to collect animals. Animals were infected by placing them on the SC5314 lawn for 4 h at 25° C. Following this exposure, they were washed off the plate and washed four times with 2 ml of sterile M9. The nematodes were then pipetted (˜30 per well with 2 wells per condition for a total of ˜60 worms assayed) into six-well plates with 2 ml of liquid medium (20% BHI broth and 80% M9) containing the indicated concentrations of test compounds. Plates were incubated at 25° C., and worm death was scored daily. Kaplan-Meier survival curves were generated and analyzed as described in the quantification and statistical analysis section.

Series [3] can be described thus: Peptide serum stability assay. It is filed as in vitro ADME. Conditions: 10% human serum, 37° C., HPLC; read-out: Peptide remaining after 24 hours in human serum. The procedure: Peptide serum stability assay. One mL of RPMI supplemented with 10% (v/v) of human serum (type AB) were aliquoted and temperature-equilibrated at 37° C. for 15 min before adding a concentrated stock peptide solution resulting in a final peptide concentration of 100 μM. For each time point, 100 μL of the reaction solution was removed and added to 200 μL 96% ethanol for precipitation of serum proteins. The sample was cooled (4° C.) for 15 min and then spun at 18,000 g for 2 min to pellet the precipitated serum proteins. The reaction supernatant was analyzed using HPLC with absorbance detected at 280 nm. The peptide peak was detected first without serum treatment to assess the area under the curve for the peptide of interest. At each time point the area under the curve was calculated by HPLC and then divided by the untreated peptide area under the curve to determine the percent remaining.

Series [4] has as its system C. albicans. Put plainly: High-throughput Sytox Orange C. elegans infection assay, C. albicans. It is filed as in vivo. To be noted: five days of infection; vs. DMSO control. The method, then: FIGS. 15A-15D: Secondary testing of gain-of-function variants from screen. (FIG. 15A) Survival over time of C. elegans infected with C. albicans and exposed to 1 nM of the indicated peptides. Statistical differences in survival were compared to animals in the exposure condition on the right of the legend (12aa-WT) by Mantel-Cox log rank analysis. An n of 30 animals was used and one representative trial is shown. (FIG. 15B) Percent survival as measured by the high-throughput Sytox Orange assay following five days of infection with C. albicans is shown. Means were calculated with the error bars representing the SEM. Statistical differences in survival were compared to animals in the untreated condition (DMSO) by one-way ANOVA followed by Dunnett's multiple comparison test. An n of 30 animals was used per experimental group. (FIG. 15C) Adhesion of C. albicans to tissue-culture treated plates following incubation with 10 nM of the indicated peptides is shown. A non-adherent strain (Δefg1/Δcph1) was used as a control. Means were calculated with the error bars representing the SEM. Statistical significance in comparison to the DMSO control group was determined using one-way ANOVA followed by Tukey's multiple comparison test. An n of three biological replicates, each with four technical replicates, was used. (FIG. 15D) Percent survival as measured by the high-throughput Sytox Orange assay following five days of infection with C. neoformans is shown. Means were calculated with the error bars representing the SEM. Statistical differences in survival were compared to animals in the untreated condition (DMSO) by one-way ANOVA followed by Dunnett's multiple comparison test. An n of 30 animals was used per experimental group.
High-throughput screening of this library was performed by employing established assays to assess antifungal agent efficacy. […] By using these assays in concert, each individual peptide was assessed using two approaches that probe different aspects of C. albicans virulence.

Series [5] deals with C. auris. In words: Survival of C. elegans infected with C. auris. It is filed as in vivo. Conditions: 1 nM peptide. The method, then: FIGS. 6A-6D: EntV peptides have activity against many fungal species and strains. Survival over time of C. elegans infected with C. auris, (FIG. 6A), C. neoformans, (FIG. 6B), and C. albicans, (FIG. 6C), paired clinical isolates before (AzS: fluconazole-susceptability) and after gaining fluconazole resistance (AzR), (FIG. 6D). Peptides were added at 1 nM and fluconazole at 4 ug/ml. Statistical differences in survival were compared to animals to the DMSO vehicle control by Mantel-Cox log rank analysis. An n of 60 was used and one representative trial is shown. Exact p values from top to bottom: (FIG. 6A) <0.0001, <0.0001, (FIG. 6B) <0.0001, <0.0001, (FIG. 6C) 0.0013, 0.0004, 0.0035, (FIG. 6D) 0.0050, 0.0040, 0.5539.
EntV peptides have activity against other fungal species and strains. […] Paired clinical isolates of C. albicans, in which fluconazole-resistance had been gained following in-patient evolution were tested and it was determined that animals infected with both the original strain as well as the fluconazole-resistant descendent were protected by EntV ([…]).
Killing of C. elegans by C. albicans. […] Plates were incubated at 25° C., and worm death was scored daily. Kaplan-Meier survival curves were generated and analyzed as described in the quantification and statistical analysis section.

Series [6] deals with Cryptococcus neoformans. In words: High-throughput Sytox Orange C. elegans infection assay, C. neoformans. Conditions: five days of infection; vs. DMSO control. It is filed as in vivo. The procedure: FIGS. 15A-15D: Secondary testing of gain-of-function variants from screen. (FIG. 15A) Survival over time of C. elegans infected with C. albicans and exposed to 1 nM of the indicated peptides. Statistical differences in survival were compared to animals in the exposure condition on the right of the legend (12aa-WT) by Mantel-Cox log rank analysis. An n of 30 animals was used and one representative trial is shown. (FIG. 15B) Percent survival as measured by the high-throughput Sytox Orange assay following five days of infection with C. albicans is shown. Means were calculated with the error bars representing the SEM. Statistical differences in survival were compared to animals in the untreated condition (DMSO) by one-way ANOVA followed by Dunnett's multiple comparison test. An n of 30 animals was used per experimental group. (FIG. 15C) Adhesion of C. albicans to tissue-culture treated plates following incubation with 10 nM of the indicated peptides is shown. […] Means were calculated with the error bars representing the SEM. Statistical significance in comparison to the DMSO control group was determined using one-way ANOVA followed by Tukey's multiple comparison test. […] (FIG. 15D) Percent survival as measured by the high-throughput Sytox Orange assay following five days of infection with C. neoformans is shown. Means were calculated with the error bars representing the SEM. […]

Several values for one entry are separate records, joined by “and”; a condition that tells them apart may be missing. Equal entries are not always repeated. Entries after “also recorded” stand apart in the source; their conditions may differ. Square brackets hold non-standard residues; d marks the D form. Peptide text beside a SMILES is read from it.

Turning to AGQLALWAVQC [11aa], in series [1], the “Fungal burden in the tongue (C. albicans DNA by qPCR)” value (“Fungal burden in the tongue” below) is recorded as “reduced fungal burden in the OPC model, but not to the same degree as the 12-mer” and the “Hyphal (epithelial) invasion of the tongue” value (“Hyphal (epithelial) invasion” below) is recorded as “some reduction”. In series [2], the “Median survival” value was 9 days and 10 days.

As for `CC(C)C[C@@H](NC(=O)[C@@H](C)NC(=O)[C@@H](CC(C)C)NC(=O)[C@@H](CCC(N)=O)NC(=O)CNC(=O)[C@@H](C)NC(=O)[C@H](N)C(C)C)C(=O)N[C@H](Cc1c[nH]c2ccccc12)C(=O)N[C@H](C)C(=O)N[C@@H](C(=O)N[C@H](CCC(N)=O)C(=O)N[C@H](CS)C(N)=O)C(C)C` [12aa D-form peptide] (H-[dV][dA]G[dQ][dL][dA][dL][dW][dA][dV][dQ][dC]-NH2), the “Protection of C. elegans from C. albicans infection (survival)” value (“Protection of C. elegans” for short) in series [2] was “remained as effective as the original in protecting C. elegans against infection with C. albicans”. The share remaining at 24 h, 100 μM in series [3] was about 35%.

For LVLAFWAVVC [P3], the “Survival of C. elegans by Sytox Orange assay, C. albicans” value (“Survival of C. elegans … C. albicans” below) in series [4] was “statistically significant antifungal activity”. Moreover, the “Protection of C. elegans” value in series [2] is given as “as effective in protecting the animals as the original 12aa peptide”.

Turning to VVLALWAVQC [P1], in series [1], the “Fungal burden in the tongue” value was “significantly reduced” and the “Hyphal (epithelial) invasion” value is “significantly reduced”. In addition, the “Survival of C. elegans … C. albicans” value in series [4] was “statistically significant antifungal activity”. Besides, in series [2], the “Protection of C. elegans” value was “as effective in protecting the animals as the original 12aa peptide”.

For TNAAAAQQGGIICLLVVWLS [α7 - disrupt], the “Median survival” value in series [2] is reported as 6 days.

Consider TNAIIVAGQLALWAVQCG [α7], for which, in series [2], the “Protection of C. elegans” value is reported as “protected C. elegans from C. albicans infection as well or better than full-length, active EntV^68”; the “Median survival” value was 10.5 days and 12 days and 11 days and 10 days and 13 days and 14 days. Moreover, in series [5], the “Survival of C. elegans infected with C. auris” value is “protected animals from death”.

For the compound GQLALWAVQC [10aa], in series [1], the “Fungal burden in the tongue” value is “reduced fungal burden in the OPC model, but not to the same degree as the 12-mer” and the “Hyphal (epithelial) invasion” value is reported as “some reduction”. Moreover, the “Median survival” value in series [2] was 8 days and 9 days. In series [6], the “Survival of C. elegans by Sytox Orange assay, C. neoformans” value is on record as “not effective”.

As for TNVGALWICGLAVIQAAQLS [α7 - random], in series [2], the “Median survival” value is given as 7 days.

On to VLLALWALVC [P5], for which the “Protection of C. elegans” value in series [2] was “as effective in protecting the animals as the original 12aa peptide”.

Consider VQLALWAVQC [P4], for which, in series [1], the “Fungal burden in the tongue” value is listed as “significantly reduced; also recorded: more effective than P1 in reducing fungal burden” and the “Hyphal (epithelial) invasion” value is “significantly reduced”. The “Survival of C. elegans … C. albicans” value in series [4] was “statistically significant antifungal activity”. Moreover, the “Protection of C. elegans” value in series [2] was “as effective in protecting the animals as the original 12aa peptide”.

For the origin of these results see patent US20250250308A1, “METHODS AND COMPOSITIONS WITH ANTIFUNGAL ACTIVITY” (priority 2022, published 2025).
